According to patent publication US20260028338A1, “HETEROBIFUNCTIONAL COMPOUNDS AND METHODS OF TREATING DISEASE” (Halda Therapeutics OpCo, Inc., priority 2023, published 2026):

Tests used:
[1] = molecular target: T1, biotinylated BCL6 (5-129) (Homo sapiens, UniProt P41182); assay: SPR assay for binding affinity to BCL6; details: Biacore 8K, 25° C., immobilized biotinylated BCL6 (5-129)
T1 construct: biotinylated BCL6 (5-129) was diluted in 10 mM HEPES pH 7.4; biotin (biotinylated)
Protocol: Exemplary compounds were tested for ability to bind to B-cell lymphoma 6 (BCL6) protein.
Binding studies by surface plasmon resonance (SPR) were performed using a Biacore 8K (Cytiva) instrument at 25° C. Briefly, biotinylated BCL6 (5-129) was diluted in 10 mM HEPES pH 7.4, 150 mM NaCl, 0.05% Surfactant P20, 0.5 mM TCEP, 3% DMSO to 1-5 μg/mL and was immobilized on an SA sensor chip (Cytiva, BR100032), resulting in surface densities at 1000-3000 resonance units (RUs). Test compounds were serially diluted five times in the same buffer and were injected to the immobilized surface. Kinetic determination experiments were performed using single-cycle kinetics with 110-120 s contact time, 1000-4000 s dissociation time, 30 μL/min flow rate. Binding data were analyzed by using Biacore insight evaluation software to determine KD values for test compounds.

[2] = molecular target: T2, His-tagged BRD4 BD1 (46-168) (Homo sapiens, UniProt O60885); assay: AlphaLISA competition assay, BRD4 BD1; assay type: binding; details: BRD4-BD1, AlphaLISA competition with biotinylated histone H4K5/8/12/16(Ac) peptide, 10 nM
T2 construct: His-tagged BRD4 BD1 (46-168) and biotinylated histone H4K5/8/12/16(Ac) peptide
Protocol: (§1) Exemplary compounds were tested for ability to bind to bromodomain-containing protein 4 (BRD4).
(§2) Compounds were tested using a developed AlphaLISA competition assay. Briefly, His-tagged BRD4 BD1 (46-168) and biotinylated histone H4K5/8/12/16(Ac) peptide (ANASPEC, AS-64989-1) were incubated in 20 mM HEPES pH 7.5, 100 mM NaCl, 0.5 mM TCEP, 0.1% BSA, 0.02% CHAPS at a final concentration of 10 nM. Test compounds were serially diluted ten times in the same buffer and were added to the BRD4-peptide mixture for 1 h incubation at room temperature. Following incubation, Streptavidin AlphaLISA acceptor beads (PerkinElmer, AL125M) were added to BRD4-peptide-compound samples to a final concentration of 0.01 mg/mL for a 0.5 h incubation at room temperature in the dark. Following incubation, the same amount of Nickel Chelate Alpha donor beads (PerkinElmer, AS101M) were added to the samples for a final 1 h incubation. The AlphaLISA signals were measured using an EnVision plate reader (PerkinElmer). The data were uploaded to Screening Ultra (Dotmatics) to determine the half-maximal inhibitory concentration (IC50) for each test compound.

[3] = molecular target: T3, His-tagged BRD4 BD2 (333-460) (Homo sapiens, UniProt O60885); assay: AlphaLISA competition assay, BRD4 BD2; assay type: binding; details: BRD4-BD2, AlphaLISA competition with biotinylated histone H4K5/8/12/16(Ac) peptide, 20 nM
T3 construct: The same assay was developed for His-tagged BRD4 BD2 (333-460) and biotinylated histone H4K5/8/12/16(Ac) peptide
Protocol: as §1, §2
The same assay was developed for His-tagged BRD4 BD2 (333-460) and biotinylated histone H4K5/8/12/16(Ac) peptide at a final concentration of 20 nM.

[4] = test system: T-Rex 293 cell line SC cells having increased expression of BCL6 protein; assay: Cellular growth inhibition assay, T-Rex 293 SC cells with doxycycline (CellTiter-Glo); assay type: cell-based; details: T-Rex 293 SC cells with 10 ng/mL doxycycline (increased BCL6 expression), 72 hours, CellTiter-Glo 2.0
Protocol: (§3) Exemplary compounds were tested for ability to inhibit the proliferation of the following types of cells: (i) a T-Rex 293 cell line having increased expression of BCL6 protein due to exposure of doxycycline and (ii) a T-Rex 293 cell line lacking increased expression of BCL6 protein.
(§4) The following types of cells were prepared for this experiment: (i) a T-Rex 293 cell line having increased expression of BCL6 protein due to exposure to doxycycline and (ii) a T-Rex 293 cell line lacking increased expression of BCL6 protein. Ability of the test compounds to inhibit proliferation of the foregoing cell types was evaluated according to the procedures set forth below.
(§5) The doxycycline-inducible BCL6 protein expressing cell line was established using the following protocol: T-Rex 293 cells were purchased from Invitrogen (Cat #R71007) and transfected using Lipofectamine 2000 with the wild-type BCL6 protein sequence cloned into the pcDNA4/TO vector. Transfected cells were selected using 400 μg/mL Zeocin (Invitrogen Cat #R25001). Following selection, single clones were raised and maintained in Dulbecco's Modified Eagle Medium (DMEM) supplemented with 10% w/w Tetracycline-free fetal bovine serum (FBS) and 250 μg/mL Zeocin. Clones were analyzed for expression of BCL6 protein in the presence and absence of 10 ng/mL doxycycline (Sigma Cat #D9891), and a single doxycycline-inducible clone (hereinafter “SC”) was selected for use in downstream assays.
(§6) The SC cells were seeded on poly-D-lysine coated, black clear-bottom 384-well plates at 2500/well, in 25 μL Dulbecco's Modified Eagle Medium (DMEM) supplemented with 10% w/w Tetracycline-free fetal bovine serum (FBS) and 1% w/w pen-strep, with or without 10 ng/mL doxycycline. Pen-Strep is a commercially available mixture of penicillin G and streptomycin, which is used in mammalian cell culture media to prevent bacterial contamination. Dulbecco's Modified Eagle Medium (DMEM) supplemented with 10% w/w Tetracycline-free fetal bovine serum (FBS) and 1% w/w pen-strep, with or without 10 ng/mL doxycycline is herein referred to as Treatment Medium. Following seeding of cells in the plates, the plates were spun at 300×g for 30 seconds, then equilibrated to room temperature for 30 minutes, and then deposited in a humidified tissue culture incubator maintained at 37° C. with 5% CO2.
(§7) At 24 hours after seeding of the cells, dilutions of test compound were prepared in DMSO and dissolved in Treatment Medium, to achieve a final DMSO concentration of 0.5% w/w, thereby providing the Test Compound Solution. A 25 μL aliquot of the Test Compound Solution was added to cells in the well plates. An equal volume of a solution containing DMSO and Treatment Medium was used as a negative control. Following treatment of cells with Test Compound Solution or said equal volume of a solution containing DMSO and Treatment Medium, the plates were spun at 300×g for 30 seconds, and then left in an incubator for 72 hours.
(§8) At the end of the treatment duration, cell viability was quantified with CellTiter-Glo 2.0 reagent (Promega Cat #G9243). For this purpose, plates were equilibrated to room temperature for 30 minutes, and then 25 μL of CellTiter-Glo 2.0 reagent was added to cells in the plate wells. Plates were then agitated on a shaker for two minutes at 500 rpm and subsequently incubated at room temperature for 10 minutes. Following incubation, the plates were spun at 3000×g for 30 seconds, then sealed with an optical adhesive cover, and luminescence readings were measured with an EnVision Plate Reader (Perkin Elmer).
(§9) Data was normalized using zero luminescence for baseline. A four-parameter non-linear regression curve fit was applied to dose-response data in GraphPad Prism data analysis software to determine the half-maximal growth inhibitory concentration (GI50) for each test compound.

[5] = test system: T-Rex 293 cell line SC cells lacking increased expression of BCL6 protein; assay: Cellular growth inhibition assay, T-Rex 293 SC cells without doxycycline (CellTiter-Glo); assay type: cell-based; details: T-Rex 293 SC cells not exposed to doxycycline (no increased BCL6 expression), 72 hours, CellTiter-Glo 2.0
Protocol: as §3, §4, §5, §6, §7, §8, §9

Su-DHL-4 cell line = assay: Cellular growth inhibition assay, Su-DHL-4 cells (CellTiter-Glo); assay type: cell-based; details: Homo sapiens; Su-DHL-4 cell line (DLBCL), 72 hours, CellTiter-Glo 2.0
Protocol: (§10) Exemplary compounds were tested for ability to inhibit the proliferation of Su-DHL-4 and Farage cells. Su-DHL-4 and Farage cells are commercially available diffuse large B cell lymphoma cell lines (DLBCL).
(§11) Su-DHL-4 and Farage cells were purchased from American Type Cell Culture (ATCC Cat #CRL-2957/CRL-2630) and then seeded on poly-D-lysine coated, black clear-bottom 384-well plates at 3000/well in 25 μL Roswell Park Memorial Institute media (RPMI-1640) supplemented with 10% w/w Fetal bovine serum (FBS) and 1% w/w Pen-Strep. Pen-Strep is a commercially available mixture of penicillin G and streptomycin, which is used in mammalian cell culture media to prevent bacterial contamination. Roswell Park Memorial Institute media (RPMI-1640) supplemented with 10% w/w fetal bovine serum (FBS), and 1% w/w Pen-Strep is herein referred to as Treatment Medium. Following seeding of cells in the plates, the plates were spun at 300×g for 30 seconds, then equilibrated to room temperature for 30 minutes, and then deposited in a humidified tissue culture incubator maintained at 37° C. with 5% CO2.
as §7, §8, §9

Farage cell line = assay: Cellular growth inhibition assay, Farage cells (CellTiter-Glo); assay type: cell-based; details: Farage cell line (DLBCL), 72 hours, CellTiter-Glo 2.0
Protocol: as §10, §11, §7, §8, §9

Kd [1] [nM] | IC50 [2] [nM] | IC50 [3] [nM] | GI50 (Su-DHL-4 cell line) [nM] | Structure (SMILES) | GI50 [4] [nM] | GI50 [5] [nM] | GI50 (Farage cell line) [nM]
1 to 10 | 5 to 50 | < 5 | < 500 | CNC(=O)COc1cc2cc(Nc3nc(N4CCC(CCCN5CCN(CCN(C)[C@H]6C[C@H](Oc7ccc(C(C)(C)O)cc7-c7cn(C)c(=O)c8[nH]ccc78)C6)CC5)CC4)ncc3Cl)ccc2n(C)c1=O [Compound I-19] | < 500 | 1500 to 3000 | < 500
1 to 10 | 5 to 50 | < 5 | < 500 | CNC(=O)COc1cc2cc(Nc3nc(N4CCC(CN5CCN(CCN(C)[C@H]6C[C@H](Oc7ccc(C(C)(C)O)cc7-c7cn(C)c(=O)c8[nH]ccc78)C6)CC5)CC4)ncc3Cl)ccc2n(C)c1=O [Compound I-20] | < 500 | 500 to 1500 | < 500
1 to 10 | 50 to 500 | < 5 | < 500 | CNC(=O)COc1cc2cc(Nc3nc(N4CCC(CCN5CCN(CCOc6cccc(Oc7ccc(C(C)(C)O)cc7-c7cn(C)c(=O)c8[nH]ccc78)c6)CC5)CC4)ncc3Cl)ccc2n(C)c1=O [Compound I-24] | < 500 | < 500 | < 500
1 to 10 | < 5 | < 5 | < 500 | CNC(=O)COc1cc2cc(Nc3nc(N4CCN(CCN5CCN(CCOc6cccc(Oc7ccc(C(C)(C)O)cc7-c7cn(C)c(=O)c8[nH]ccc78)c6)CC5)CC4)ncc3Cl)ccc2n(C)c1=O [Compound I-23, 2-[[6-[[5-chloro-2-[4-[2-[4-[2-[3-[4-(1-hydroxy-1-methyl-ethyl)-2-(6-methyl-7-oxo-1H-pyrrolo[2,3-c]pyridin-4-yl)phenoxy]phenoxy]ethyl]piperazin-1-yl]ethyl]piperazin-1-yl]pyrimidin-4-yl]amino]-1-methyl-2-oxo-3-quinolyl]oxy]-N-methyl-acetamide] | < 500 | 500 to 1500 | < 500
> 100 | 5 to 50 | < 5 | < 500 | CNC(=O)COc1cc2cc(Nc3nc(N4CCCC5(CC(Oc6ccc(C7=N[C@@H](Cc8ncco8)c8nnc(C)n8-c8sc(C)c(C)c87)cc6)C5)C4)ncc3Cl)ccc2n(C)c1=O (stereo partly shown) [Compound I-27] | < 500 | < 500 | < 500
> 100 | 5 to 50 | < 5 | < 500 | CNC(=O)COc1cc2cc(Nc3nc(N4CCC5(CC4)CC(Oc4ccc(C6=N[C@@H](Cc7ncco7)c7nnc(C)n7-c7sc(C)c(C)c76)cc4)C5)ncc3Cl)ccc2n(C)c1=O [Compound I-25, 2-[[6-[[5-chloro-2-[2-[4-[(9S)-4,5,13-trimethyl-9-(oxazol-2-ylmethyl)-3-thia-1,8,11,12-tetrazatricyclo[8.3.0.02,6]trideca-2 (6),4,7,10,12-pentaen-7-yl]phenoxy]-7-azaspiro[3.5]nonan-7-yl]pyrimidin-4-yl]amino]-1-methyl-2-oxo-3-quinolyl]oxy]-N-methyl-acetamide] | < 500 | < 500 | < 500
1 to 10 | < 5 | < 5 | < 500 | CCS(=O)(=O)Nc1ccc(Oc2cccc(OCCN3CCN(CCN4CCN(c5ncc(Cl)c(Nc6ccc7c(c6)cc(OCC(=O)NC)c(=O)n7C)n5)CC4)CC3)c2)c(-c2cn(C)c(=O)c3[nH]ccc23)c1 [Compound I-15] | < 500 | 500 to 1500 | < 500
10 to 100 | < 5 | < 5 | < 500 | CNC(=O)COc1cc2cc(Nc3nc(N4CCC(CN5CC(Oc6ccc(C7=N[C@@H](Cc8ncco8)c8nnc(C)n8-c8sc(C)c(C)c87)cc6)C5)CC4)ncc3Cl)ccc2n(C)c1=O [Compound I-26] | < 500 | < 500 | –
